System: participants with episodic migraine
Assay: Study A: Activity Impairment in Migraine-Diary (AIM-D) PDA and PI domain scores
Assay type: in vivo, human
Settings: for AIM-D Performance of Daily Activities domain score, LSMD vs. placebo (95% CI) / AIM-D Physical Impairment domain score, LSMD vs. placebo (95% CI) / AIM-D Performance of Daily Activities domain score, change from baseline, mean (SD) / AIM-D Physical Impairment domain score, LS mean change (SE): across 12 weeks; for AIM-D Performance of Daily Activities domain score, change from baseline, mean (SD) / AIM-D Physical Impairment domain score, LS mean change (SE) / AIM-D Performance of Daily Activities domain score, Month 1-3, mean (SD): mITT; for AIM-D Performance of Daily Activities domain score, Month 1-3, mean (SD): average across 12-week treatment period
Description: The Activity in Migraine Diary (AIM-D) evaluates the impact of migraine on the performance of daily activities and physical impairment using an electronic daily diary. In particular, the AIM-D is comprised of two domains that evaluate Performance of Daily Activities (PDA) and Physical Impairment (PI). Assessed items for the AIM-D PDA domain include household chores, errands, leisure activities at home, social or leisure activities outside the home, strenuous physical activities, concentration, and thinking clearly. Assessed items for the AIM-D PI Domain include walking, moving one's body, bending forward, and moving one's head. Response options for each item range from “not difficult at all” to “I could not do it at all” on a 6-point rating scale. The AIM-D domain scores are scaled from 0-100, with higher scores indicating greater impact of migraine, and reductions from baseline in scores indicate improvement. See Cala et al., The Activity Impairment in Migraine-Diary (AIM-D): A Novel Migraine-Specific Patient-Reported Outcome Measure to Assess Functioning Based on Activity Impairment in Episodic and Chronic Migraine Patients, MTIS2018-005 (Sep. 5, 2018).
A secondary endpoint evaluated the change from baseline in mean monthly performance of daily activities domain score of the AIM-D across the 12-week treatment period. Another secondary endpoint evaluated the change from baseline in mean monthly physical impairment domain score of the AIM-D across the 12-week treatment period. The Activity Impairment in Migraine-Diary (AIM-D) is an 11-item daily diary that is comprised of two domains that evaluate Performance of Daily Activities (PDA; 7 items) and Physical Impairment (PI; 4 items). See Cala et al., “The Activity Impairment in Migraine Diary (AIM-D): A novel migraine-specific patient-reported outcome measure to assess functioning based on activity impairment in episodic and chronic migraine patients”, Cephalalgia 2018; 38:1-115, which is incorporated by reference herein in its entirety. In particular, the AIM-D assesses the impact of migraine on the performance of daily activities and physical impairment using a 6-point rating scale ranging from “Not difficult at all,” “A little difficult,” “Somewhat difficult,” “Very Difficult,” “Extremely Difficult”, and “I could not do it at all.” Items assessed for the AIM-D PDA domain included household chores, errands, leisure activities at home, social or leisure activities outside the home, strenuous physical activities, concentration, and thinking clearly. Items assessed for the AIM-D PI Domain included walking, moving body, bending forward, and moving head. Raw domain scores are recalled to a 0 to 100 scale, where higher scores indicate greater impact of migraine, and reductions from baseline in scores indicate improvement. The AIM-D was collected daily via an electronic diary with the same set of questions administered in headache (HA) and non-headache (NHA) versions. Monthly domain scores are calculated by summing the non-missing daily domain scores (HA and NHA days combined) and dividing the number of non-missing daily scores. The secondary endpoints for AIM-D PDA and PI domain scores were evaluated as change from baseline in mean monthly PDA or PI domain scores of the AIM-D across the 12-week treatment period.

`C[C@@H]1[C@H](c2c(F)ccc(F)c2F)C[C@H](NC(=O)c2cnc3c(c2)C[C@@]2(C3)C(=O)Nc3ncccc32)C(=O)N1CC(F)(F)F` [atogepant] was tested, and the “AIM-D Performance of Daily Activities domain score, LSMD vs. placebo (95% CI)” value (“AIM-D Performance … (95% CI)” for short) (10 mg QD) was −1.19, the “AIM-D Physical Impairment domain score, LSMD vs. placebo (95% CI)” value (10 mg QD) was −1.08 and the “AIM-D Performance of Daily Activities domain score, change from baseline, mean (SD)” value (10 mg QD) was −7.0. For the same compound, the “AIM-D Physical Impairment domain score, LS mean change (SE)” value (10 mg QD) was −5.11, the “AIM-D Performance of Daily Activities domain score, Month 1-3, mean (SD)” value (shortened to “AIM-D Performance … Month 1-3, mean (SD)”) (10 mg QD) was 8.6 and the “AIM-D Performance … (95% CI)” value (30 mg QD) was −2.54. The “AIM-D Physical Impairment domain score, LSMD vs. placebo (95% CI)” value (30 mg QD) was −1.99, the “AIM-D Performance of Daily Activities domain score, change from baseline, mean (SD)” value (30 mg QD) was −8.9 and the “AIM-D Physical Impairment domain score, LS mean change (SE)” value (30 mg QD) was −6.02. For the same compound, the “AIM-D Performance … Month 1-3, mean (SD)” value (30 mg QD) was 8.0, the “AIM-D Performance … (95% CI)” value (60 mg QD) was −3.32 and the “AIM-D Physical Impairment domain score, LSMD vs. placebo (95% CI)” value (60 mg QD) was −2.46. The “AIM-D Performance of Daily Activities domain score, change from baseline, mean (SD)” value (60 mg QD) was −9.2, the “AIM-D Physical Impairment domain score, LS mean change (SE)” value (60 mg QD) was −6.49 and the “AIM-D Performance … Month 1-3, mean (SD)” value (60 mg QD) was 6.6.

— patent US12383545B1, “Treatment of migraine” (priority 2018, dated 2025)
